# Test results from patent US6890951B2, “Treatment of addiction and addiction-related behavior” (Brookhaven Science Associates LLC, priority 1998, dated 2005).
# Entries after “also recorded” stand apart in the source; their conditions may differ.
# What was measured:
# freely moving rats = assay: Cocaine-induced stereotypy after a sensitizing regimen of cocaine; format: in vivo
# Method: The phenomenon of sensitization is observed with virtually all drugs of addiction. Sensitization is believed to play a role in the etiology of addiction.
# Animals received 15 mg/kg i.p. of cocaine and stereotypy was determined in standard locomotor cages. For 6 consecutive days, animals received 15 mg/kg i.p. of cocaine once a day in their home cages. Eight days later, animals were rechallenged with 15 mg/kg i.p. of cocaine and stereotypy was determined. A five point rating scale was used to assess stereotypy and the rater was blind to the treatment received by each animal.
# [1] = in vivo; cited from earlier work
# NAc DA = assay: Microdialysis: cocaine/heroin (speedball) induced increases in NAc DA; format: in vivo, rats
# Method: In vivo microdialysis studies were performed using adult male Sprague-Dawley rats (Taconic Farms) as detailed previously (Morgan and Dewey, 1998). Cocaine, a dopamine reuptake inhibitor, (n=6-8) was administered (i.p.) at a dose of 20 mg/kg while heroin, an indirect dopamine releaser, (n=6-8) was administered (i.p.) at a dose of 0.5 mg/kg. In studies designed to investigate the synergistic effects of a cocaine/heroin combination (n=6-8), both drugs were administered at the identical dose used in the single drug studies. Alone cocaine produced a marked elevation in extracellular DA of approximately 380% above baseline values, 60 minutes following administration. DA returned to baseline within 120 minutes. In contrast, heroin increased NAc DA by only 70%, 60 minutes following administration, returning to baseline within 140 minutes. However, when combined, the two drugs produced an increase in NAc DA of approximately 1000%, 180 minutes following administration that had not returned to baseline values by 200 minutes after reaching peak values (FIG. 9).
# male Sprague-Dawley rats = assay: Locomotor activity (Photobeam Activity System); format: in vivo; details: GVG 150 mg/kg or 300 mg/kg i.p., 2.5 hours before
# Method: Animals were prehandled for 5 minutes each day for one week prior to the experiment to reduce handling stress. […] The animals were transported to the testing area one hour before each experiment. […] The locomotor cages themselves are 41.3×41.3×30.5 cm clear acrylic cages. The electronic system (Photobeam Activity system, San Diego Instruments, San Diego, Calif.) used to monitor locomotor activity consists of 16 infrared beams projecting across the cages from left to right and 16 beams from front to back. All the infrared beams are approximately 0.39 cm from the floor.
# In this example the procedures outlined in Section 4 and 5 of Materials and Methods were followed.
# [2] = system: extracellular DA in the NACC; assay: In vivo microdialysis: nicotine-induced increases in extracellular NACC DA; design: species or system rats
# Text: All animals were used under an IACUC-approved protocol and with strict adherence to the NIH guidelines. Adult male Sprague-Dawley rats (200-300 g, Taconic Farms), housed in the animals care facility under 12:12 light/dark conditions, were placed into 6 groups (n=5-9), anesthetized and siliconized guide cannulae were stereotactically implanted into the right NACC (2.0 mm anterior and 1.0 mm lateral to bregms, and 7.0 mm ventral to the cortical surface) at least 4 days prior to study. […] Animals were placed in bowls, and probes were inserted and flushed with ACSF overnight. On the day of the study, a minimum of three samples were injected to determine baseline stability. Samples were collected for 20 min. and injected on-line (CMA/160, BAS). The average Dopamine concentration of these three stable samples was defined as control (100%), and all subsequent treatment values were transformed to a percentage of that control. […] The high performance liquid chromatography (HPLC) system consists of a BAS reverse-phase column (3.0 μC-18), a BAS LC-4C electrochemical transducer with a dual/glassy carbon electrode set at 650 mV, a computer that analyzes data on-line using a commercial software package (Chromograph Bioanalytical Systems), and a dual pen chart recorder. The mobile phase (flow rate 1.0 ml/min) consisted of 7.0% methanol, 50 mM sodium phosphate monobasic, 1.0 mM sodium octyl sulfate, and 0.1 mm EDNA, pH 4.0. […] Upon completion of the study, animals were decapitated and frozen sections were obtained for probe placement verification.
# The open circles are control animals.
# In all studies, animals were placed in the microdialysis bowls the night before the experiment and artificial cerebrospinal fluid (ACSF) was perfused through the microdialysis probes at a flow rate of 2.0 μl/min. At the end of each study, animals were sacrificed and their brains were removed and sectioned for probe placement verification.
# [3] = system: extracellular DA in the NACC; assay: Microdialysis: ethanol-induced increases in NACC DA; format: in vivo, rats; details: Rattus norvegicus
# Method: Ethanol at a dose of 1.0 g/kg i.p. was administered to the animals.
compound,measurement,setting,value
"C=CC(N)CCC(=O)O (racemic) [GVG, 4-amino-5-hexanoic acid]",Stereotypies on Day 15,"freely moving rats; 150 mg/kg i.p. of GVG 2 hrs. before, cocaine 15 mg/kg i.p. rechallenge after sensitizing regimen",2.3 ± 0.6
same,expression of cocaine-induced sensitization,freely moving rats; GVG 150 mg/kg i.p. 2.5 hours prior to the cocaine challenge,abolished the expression of cocaine-induced sensitization
same,Stereotypy score on Day 1,"freely moving rats; cocaine 15 mg/kg i.p., baseline of the group later given GVG (no GVG on Day 1)",2.9 ± 0.4
same,excretion,[1],excreted primarily unchanged in the urine; also recorded: excreted primarily in the unchanged form by the kidneys
same,interaction with the hepatic microsomal enzymes,[1],does not interact with the hepatic microsomal enzymes
same,temporal aspects of the response to cocaine/heroin,NAc DA; GVG 300 mg/kg i.p.,did not effect the temporal aspects of the response
same,increase in NAc DA after cocaine/heroin challenge,"NAc DA; GVG 300 mg/kg i.p. 2.5 hours prior to challenge, 180 minutes following challenge",approximately 500%
same,synergistic effects of the combined drug challenge (absolute magnitude),NAc DA; GVG 300 mg/kg i.p. 2.5 hours prior to cocaine/heroin,completely abolished the synergistic effects
same,locomotor activity compared to saline pretreated controls,male Sprague-Dawley rats,did not alter locomotor activity
same,basal DA levels prior to nicotine administration,[2]; GVG 75 mg/kg,no effect on basal DA levels
same,effect on nicotine-induced increases in DA,[2]; GVG 75 mg/kg i.p. 2.5 hours before nicotine 0.4 mg/kg,no effect
same,effect on nicotine-induced increases in DA,[2]; GVG 100 mg/kg i.p. 2.5 hours before nicotine 0.4 mg/kg,completely abolished; also recorded: completely blocked
same,effect on nicotine-induced increases in DA,"[2]; GVG 100 mg/kg i.p. 2.5 hours before nicotine 0.4 mg/kg, listed as vigabatrin",completely blocked
same,effect on nicotine-induced increases in DA,[2]; GVG 150 mg/kg i.p. 2.5 hours before nicotine,blocks; also recorded: completely abolished
same,basal DA levels prior to nicotine administration,"[2]; GVG 90, 100 or 150 mg/kg",lowered basal DA levels
same,inhibition at 90 mg/kg,"[2]; Rattus norvegicus, ip, GVG 90 mg/kg i.p. 2.5 hours before nicotine 0.4 mg/kg",~50%
same,effect on nicotine-induced increases in extracellular DA,"[2]; chronically nicotine treated, GVG 100 mg/kg 2.5 hours prior to nicotine",completely abolished
same,nicotine-induced increase of extracellular DA above baseline,"[2]; chronically nicotine treated, GVG 100 mg/kg 12 hours prior to challenge",approximately 25%
same,inhibition at 300 mg/kg,[3],~50%
same,inhibition at 100 mg/kg,[3]; read-out: inhibition of alcohol's ability to increase nucleus accumbens dopamine,~40%
